Converted amounts (≈) assume the structure as drawn. “And” between values parts separate entries of the source, which are not always exact repeats. Identical values can stand only once.
Columns and labels:
[1] = system: VRSA 52; test: microbe, parasite or virus in culture; conditions: Staphylococcus aureus, 18 h
[2] = system: E. coli ATCC25922; test: microbe, parasite or virus in culture; conditions: Escherichia coli, ATCC25922, 18 h
[3] = system: K. pneumoniae 9883; test: microbe, parasite or virus in culture; conditions: Klebsiella pneumoniae, 9883, 18 h
[4] = system: S. aureus 15772; test: microbe, parasite or virus in culture; conditions: Staphylococcus aureus, 15772, 18 h
[5] = system: VRSA 52; test: Live/dead bacteria staining (PI/SYTO9, CLSM); conditions: 4 µM, 1 h
[6] = system: P. aeruginosa ATCC27853; test: microbe, parasite or virus in culture; conditions: Pseudomonas aeruginosa, ATCC27853, 18 h
[7] = system: E. coli ATCC25922; test: Bacterial killing kinetics; conditions: 4 µM, sampled 0-180 min
[8] = system: S. aureus CMCC26003 persister cells; test: Anti‐persister cells assay; conditions: 4 µM, 48 h, after 20× MIC ciprofloxacin for 8 h
[9] = system: S. aureus CMCC26003; test: Bacterial killing kinetics; conditions: 4 µM, sampled 0-180 min
[10] = system: MDR P. aeruginosa 5; test: microbe, parasite or virus in culture; conditions: Pseudomonas aeruginosa, 18 h
[11] = system: MDR K. pneumoniae 2; test: microbe, parasite or virus in culture; conditions: Klebsiella pneumoniae, 18 h
[12] = system: S. typhimurium ATCC14028; test: microbe, parasite or virus in culture; conditions: Salmonella enterica, 18 h
[13] = system: E. coli ATCC25922; test: Live/dead bacteria staining (PI/SYTO9, CLSM); assay type: cell-based; conditions: 4 µM, 1 h
[14] = system: S. aureus 15192; test: microbe, parasite or virus in culture; conditions: Staphylococcus aureus, 15192, 18 h
[15] = system: 13 bacterial strains; test: GM of MIC from tested bacterial strains (Table S2); assay type: cell-based; conditions: 13 strains of Table S2; read-out: GM: geometric mean of MIC from tested bacterial strains
Experimental: The 2 fold broth microdilution method was performed following previously established protocols.^[ [65], [66] ^] A total of 29 strains of human pathogenic microorganisms (11 Gram‐positive and 18 Gram‐negative) were included in the assay. Standard strains were maintained in our laboratory, and clinical isolates were obtained from the Fourth Affiliated Hospital of Soochow University. […] Gradient dilutions of the drugs (vancomycin, AMPs, and vancomycin‐AMP conjugates) were prepared in 96‐well plates, with 50 µL of each drug solution added per well. For the vancomycin and AMP mixture, 25 µL of vancomycin was combined with 25 µL of AMP at the corresponding monomer gradient concentration, resulting in a total volume of 50 µL. […] Following incubation, bacterial growth was assessed by measuring absorbance at 600 nm. The MIC was defined as the lowest concentration at which no bacterial growth was detected.

[16] = system: MRSA ATCC43300; test: microbe, parasite or virus in culture; conditions: Staphylococcus aureus, 18 h
[17] = system: MDR A. baumannii 1; test: microbe, parasite or virus in culture; conditions: Acinetobacter baumannii, 18 h
[18] = system: VRSA 52; test: Mouse skin infection model; assay type: in vivo, BALB/c mice
[19] = system: MDR K. pneumoniae 4; test: microbe, parasite or virus in culture; conditions: Klebsiella pneumoniae, 18 h
[20] = system: S. aureus CMCC26003; test: Antimicrobial resistance development assay; assay type: cell-based; conditions: S. aureus CMCC26003 cultured at sub‐MIC
[21] = system: multidrug‐resistant A. baumannii; test: Mouse lung infection model; assay type: in vivo, mice; conditions: single i.p. 5 mg kg^−1 at 0.5 h post‐infection; lung CFU after one day
Experimental: The experimental methods employed in this study were based on previously published literature.^[ [64] ^] 6–8 weeks old female mice weighing 18–20 g were selected for the study, and colonization was performed by administering 50 µL of a multidrug‐resistant A. baumannii strain (at a concentration of 1 × 10^7 CFU/mL) via tracheal intubation into the lungs of the mice for a duration of 0.5 h. After this period, an intraperitoneal injection of the drug at a dosage of 5 mg kg^−1 was administered. PBS served as a negative control, while ciprofloxacin was used as a positive control. After 24 h, the mice were euthanized, and their lung tissues were excised, homogenized, and diluted 10000 fold for colony counting. The lung tissue homogenate was then centrifuged to obtain the supernatant, which was further diluted 5 fold. The expression levels of inflammatory factors IL‐6 and TNF‐α in the supernatant were measured using an ELISA assay (ThermoFisher, US).

[22] = system: S. aureus CMCC26003; test: Antimicrobial blockade experiment using D‐Ala‐D‐Ala; assay type: cell-based; conditions: D‐Ala‐D‐Ala 0 to 128 µg mL^−1
Source text: In accordance with the experimental methods described in previous literature,^[ [42] ^]

[23] = system: VRSA 52, E. coli ATCC25922, and MDR P. aeruginosa 5; test: Crystalline violet biofilm inhibition and eradication assays; assay type: cell-based; conditions: 0.5-8 µM; three strains
Experimental: The mixture was incubated in a 96‐well plate for 48 h. Subsequent steps, including washing, fixation, staining, and OD measurement, were performed as described in the biofilm eradication assay.

[24] = system: C. perfringens ATCC13124; test: microbe, parasite or virus in culture; conditions: Clostridium perfringens, ATCC13124, 18 h
[25] = system: MDR K. pneumoniae 3; test: microbe, parasite or virus in culture; conditions: Klebsiella pneumoniae, 18 h
[26] = system: E. coli CMCC44102; test: microbe, parasite or virus in culture; conditions: Escherichia coli, CMCC44102, 18 h

CN[C@H](CC(C)C)C(=O)N[C@H]1C(=O)N[C@@H](CC(N)=O)C(=O)N[C@H]2C(=O)N[C@H]3C(=O)N[C@H](C(=O)N[C@H](C(=O)O)c4cc(O)cc(O)c4-c4cc3ccc4O)[C@H](O)c3ccc(c(Cl)c3)Oc3cc2cc(c3O[C@@H]2O[C@H](CO)[C@@H](O)[C@H](O)[C@H]2O[C@H]2C[C@](C)(N)[C@H](O)[C@H](C)O2)Oc2ccc(cc2Cl)[C@H]1O [Vm, vancomycin]
MIC [1]: > 67.3 µM and > 100 µg/mL
MIC [2]: > 67.3 µM and > 100 µg/mL
MIC [3]: > 67.3 µM and > 100 µg/mL
MIC [4]: > 67.3 µM and > 100 µg/mL
bacterial mortality [5]: 2%
MIC [6]: > 67.3 µM and > 100 µg/mL
time to elimination of all bacteria [7]: no bactericidal activity
reduction in the number of persister cells [8]: one‐order reduction
time to complete eradication of all viable bacteria [9]: > 180 min
MIC [10]: > 67.3 µM
MIC [11]: > 67.3 µM
MIC [12]: > 67.3 µM and > 100 µg/mL
bacteria killed (mortality) [13]: 6%
MIC [14]: 0.4 µM and 0.59 µg/mL
MIC [15]: 70 µg/mL (≈ 48.3 µM)
MIC [16]: 3.16 µM and 4.69 µg/mL
MIC [17]: > 67.3 µM
reduction in bacterial count within the wound ([18]; topical 2 mg kg^−1 at 6, 24 and 48 h post‐infection, VRSA 52 1 × 10^8 CFU mL^−1, wound CFU after 3 days): ≈ 30%
pro‐inflammatory cytokines TNF‐α and IL‐6 at the infection site ([18]; topical 2 mg kg^−1 ×3, ELISA of wound supernatant): didn't effectively decrease
skin wound healing ([18]; topical 2 mg kg^−1 ×3, observed to day 12): remained unhealed
MIC [19]: > 67.3 µM
change of MIC over 20 generations [20]: four‐fold increase
lung‐colonizing bacteria eliminated [21]: no antibacterial activity
fold increase in the MIC value on exogenous addition of D‐Ala‐D‐Ala [22]: > 25 fold
anti‐biofilm activity (inhibition and eradication) [23]: no noticeable anti‐biofilm activity
MIC [24]: 25.2 µM (≈ 36.6 µg/mL)
MIC [25]: > 67.3 µM
MIC [26]: > 67.3 µM

Source: PMC12931196, “Vm–MSI: a Vancomycin–Antimicrobial Peptide Conjugate Combating Resistant Bacteria and Broadening the Antimicrobial Spectrum” (Advanced Science, 2025)
